Results on ten molecules are retold here after ChEMBL document CHEMBL1201862, “PubChem BioAssay data set” (2004).

Some test systems named below: CCRF-CEM; COLO 205; DU-145; HCT-116; HCT-15; HL-60; IGROV-1; MDA-MB-435; MOLT-4; NCI-H226; NCI-H522; OVCAR-8; RPMI-8226; SK-MEL-28; SK-MEL-5; SNB-19; SNB-75; SR; T47D; UACC-257.
Assay in all cases: growth of human tumour cells (NCI), 48 h

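The compound was tested at five concentrations on cells cultured in 96-well plates, with a 48-hour exposure period. At the GI50, growth is halved.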 Activity calls are given as the source filed them. Rule as the data show it: active = GI50 up to about 1.1 µM and inactive = higher. Bounds are passed on as bounds.

Regarding `Cc1cccc(C2NC(=O)c3ccccc3N2)c1` (stereo not given), the GI50 with CCRF-CEM was 3.23 µM (inactive); in the assay with COLO 205 it was 4.19 µM (inactive); with DU-145, 7.96 µM (inactive); in the assay with HCT-116, 3.28 µM (inactive); in the assay on HCT-15, 2.85 µM; in the assay with HL-60 it was 0.802 µM (active). Further, the GI50 is 4.62 µM (inactive) with IGROV-1; 0.399 µM (active) in the assay on MDA-MB-435; 1.8 µM (inactive) in the assay on MOLT-4; 5.35 µM (inactive) with NCI-H226; 3.69 µM (inactive) with NCI-H522; 6.1 µM (inactive) in the assay on OVCAR-8. For the same molecule, the GI50 in the assay on RPMI-8226 is 3.2 µM (inactive); with SK-MEL-28, > 28.7 µM (inactive); with SK-MEL-5, 3.38 µM (inactive); in the assay with SNB-19, 11 µM (inactive); in the assay with SNB-75 it was 4.5 µM (inactive); in the assay with SR, 0.791 µM (active). In addition, the GI50 is > 100 µM (inactive) with T47D and > 31.3 µM (inactive) in the assay on UACC-257.

Regarding `CNC(=O)OCc1nc(SC)n(C)c1COC(=O)NC`, the GI50 with CCRF-CEM was 44.8 µM (inactive); in the assay with COLO 205, 146 µM (inactive); with DU-145, > 81.3 µM (inactive); in the assay on HCT-116 it was 167 µM (inactive); in the assay with HCT-15 it was 171 µM; in the assay with HL-60 it was 55.2 µM (inactive). The GI50 in the assay on IGROV-1 was 175 µM (inactive); in the assay with MDA-MB-435 it was 161 µM (inactive); in the assay with MOLT-4, 26.4 µM (inactive); in the assay on NCI-H226, 83.8 µM (inactive); in the assay with NCI-H522, 74.1 µM (inactive); in the assay on OVCAR-8 it was 182 µM (inactive). Besides, the GI50 was 117 µM (inactive) in the assay on RPMI-8226; 188 µM (inactive) in the assay on SK-MEL-28; 153 µM (inactive) in the assay on SK-MEL-5; 233 µM (inactive) in the assay on SNB-19; 167 µM (inactive) with SNB-75; 71.4 µM (inactive) in the assay on SR. For the same molecule, the results for the GI50 in the assay on T47D and with UACC-257 were 171 µM (inactive) and 103 µM (inactive), respectively.

On to `c1ccc(-c2nnc(-c3ccccn3)c3c2C[C@@H]2C[C@@H]4Cc5c(-c6ccccn6)nnc(-c6ccccn6)c5[C@@H]4[C@H]32)nc1`, for which the GI50 with CCRF-CEM is 30.3 µM (inactive); in the assay on COLO 205 it was 35.1 µM (inactive); in the assay on DU-145, 38.8 µM (inactive); in the assay with HCT-116, 39.8 µM (inactive); with HCT-15, 38.8 µM; with HL-60, 24.7 µM (inactive). In addition, the GI50 in the assay with IGROV-1 is 58.5 µM (inactive); with MDA-MB-435 it was 50.6 µM (inactive); in the assay with MOLT-4, 33.2 µM (inactive); in the assay with NCI-H226, 24.2 µM (inactive); in the assay on NCI-H522 it was 96.6 µM (inactive); in the assay on OVCAR-8, 36.8 µM (inactive). Further, the GI50 was 44.7 µM (inactive) in the assay on RPMI-8226; 34.8 µM (inactive) in the assay on SK-MEL-28; 27.8 µM (inactive) with SK-MEL-5; 80.7 µM (inactive) in the assay with SNB-19; 76.6 µM (inactive) in the assay with SNB-75; 41.4 µM (inactive) in the assay on SR. Besides, the GI50 is 38.6 µM (inactive) with T47D and 66.7 µM (inactive) with UACC-257.

As for `O=C1C(Cl)C(c2cc3cc(Br)ccc3nc2Cl)N1c1c(Cl)cccc1Cl` (stereo not given), the GI50 with CCRF-CEM was 7.53 µM (inactive); in the assay on COLO 205 it was > 25 µM (inactive); in the assay on DU-145, > 25 µM (inactive); with HCT-116 it was 9.12 µM (inactive); in the assay with HCT-15, 13.4 µM; with HL-60, 8.24 µM (inactive). Further, the GI50 in the assay with IGROV-1 was 6.9 µM (inactive); with MDA-MB-435, 8.67 µM (inactive); with MOLT-4, 4.9 µM (inactive); in the assay on NCI-H226 it was 15.8 µM (inactive); in the assay on NCI-H522, 5.37 µM (inactive); in the assay on OVCAR-8, 10.8 µM (inactive). Moreover, the GI50 with RPMI-8226 is 6.78 µM (inactive); in the assay with SK-MEL-28, > 25 µM (inactive); in the assay on SK-MEL-5, 12.5 µM (inactive); with SNB-19, > 25 µM (inactive); in the assay with SNB-75, > 25 µM (inactive); with SR it was 4.78 µM (inactive). The results for the GI50 with T47D and in the assay on UACC-257 were 11.6 µM (inactive) and 16.5 µM (inactive), respectively.

As for `Cn1c(=O)sc2cc(C(=S)N3CCOCC3)ccc21`, the GI50 in the assay on CCRF-CEM was 28.6 µM (inactive); with COLO 205 it was > 80.7 µM (inactive); in the assay on DU-145 it was > 100 µM (inactive); in the assay on HCT-116, > 100 µM (inactive); in the assay on HCT-15, greater than 92.3 µM; with HL-60, 24.7 µM (inactive). In addition, the GI50 is > 51.5 µM (inactive) with IGROV-1; > 100 µM (inactive) with MDA-MB-435; 39.9 µM (inactive) in the assay with MOLT-4; > 46.9 µM (inactive) with NCI-H226; 87.3 µM (inactive) in the assay with NCI-H522; > 47.1 µM (inactive) in the assay on OVCAR-8. Further, the GI50 in the assay on RPMI-8226 is > 79.8 µM (inactive); in the assay with SK-MEL-28, > 100 µM (inactive); in the assay with SK-MEL-5, > 100 µM (inactive); in the assay with SNB-19, > 100 µM (inactive); with SNB-75 it was > 34 µM (inactive); in the assay on SR, 69.7 µM (inactive). Also, the GI50 with T47D and in the assay with UACC-257 was > 100 µM (inactive) in each case.

As to `c1ccc2c(c1)CCCN1CCc3ccccc3C21` (stereo not given), the GI50 is 49.1 µM (inactive) in the assay on CCRF-CEM; 46.7 µM (inactive) in the assay on COLO 205; > 100 µM (inactive) in the assay on DU-145; 38.5 µM (inactive) in the assay with HCT-116; greater than 100 µM in the assay with HCT-15; 47.1 µM (inactive) with HL-60. For the same molecule, the GI50 in the assay with IGROV-1 was 40.3 µM (inactive); in the assay with MDA-MB-435, 19.8 µM (inactive); in the assay on MOLT-4, 50.9 µM (inactive); in the assay with NCI-H226, 33.3 µM (inactive); in the assay with NCI-H522, > 100 µM (inactive); in the assay with OVCAR-8 it was > 100 µM (inactive). The GI50 in the assay on RPMI-8226 was 36.2 µM (inactive); with SK-MEL-28 it was 31.4 µM (inactive); in the assay with SK-MEL-5, 23.3 µM (inactive); with SNB-19 it was 92.3 µM (inactive); in the assay with SNB-75 it was 98.2 µM (inactive); in the assay with SR it was 58.7 µM (inactive). In addition, the GI50 in the assay on T47D was > 100 µM (inactive); with UACC-257 it was 77.1 µM (inactive).

Regarding `O=c1n(-c2ccccc2)c(=O)n2n1C1C=CC2CCCCCC1`, the GI50 with CCRF-CEM is > 100 µM (inactive); in the assay with COLO 205 it was > 100 µM (inactive); in the assay with DU-145, > 100 µM (inactive); in the assay with HCT-116, > 100 µM (inactive); in the assay on HCT-15 it was greater than 100 µM; in the assay on HL-60, 29.4 µM (inactive). Further, the GI50 is > 100 µM (inactive) in the assay with IGROV-1; > 100 µM (inactive) in the assay on MDA-MB-435; > 100 µM (inactive) in the assay with MOLT-4; > 100 µM (inactive) in the assay with NCI-H226; 22.8 µM (inactive) in the assay on NCI-H522; > 100 µM (inactive) in the assay on OVCAR-8. In addition, the GI50 was 60 µM (inactive) in the assay on RPMI-8226; > 100 µM (inactive) in the assay on SK-MEL-28; > 100 µM (inactive) in the assay with SK-MEL-5; > 100 µM (inactive) with SNB-19; > 100 µM (inactive) in the assay with SNB-75; > 100 µM (inactive) with SR. The GI50 in the assay on T47D and in the assay with UACC-257 was > 100 µM (inactive) in each case.

Take `CC1=C(C(=O)NNC(=O)C(N)=O)CC(C(=O)NNC(=O)C(N)=O)=C(C)N1`: the GI50 in the assay with CCRF-CEM was > 100 µM (inactive); in the assay on COLO 205 it was > 100 µM (inactive); with DU-145 it was > 100 µM (inactive); with HCT-116 it was > 100 µM (inactive); in the assay on HCT-15, greater than 100 µM; in the assay with HL-60, 47.4 µM (inactive). The GI50 with IGROV-1, in the assay with MDA-MB-435, in the assay on MOLT-4, in the assay on NCI-H226, with NCI-H522 and in the assay on OVCAR-8 was > 100 µM (inactive) in each case. Further, the GI50 with RPMI-8226, with SK-MEL-28, in the assay with SK-MEL-5, in the assay on SNB-19, in the assay on SNB-75 and in the assay on SR was > 100 µM (inactive) each time. Besides, the GI50 in the assay with T47D and in the assay with UACC-257 was > 100 µM (inactive) throughout.

In the case of `CCCCCCCCCCCC(=O)OC[C@H](C[As](=O)(O)O)OC(=O)CCCCCCCCCCC`, the GI50 in the assay on CCRF-CEM is 13.7 µM (inactive); in the assay with COLO 205 it was 19.4 µM (inactive); with DU-145 it was 17.3 µM (inactive); in the assay on HCT-116, 8.89 µM (inactive); in the assay on HCT-15, 8.26 µM; in the assay on HL-60 it was 3.05 µM (inactive). The GI50 with IGROV-1 is 1.9 µM (inactive); with MDA-MB-435 it was 2.64 µM (inactive); in the assay with MOLT-4, 6.14 µM (inactive); with NCI-H226, 14.8 µM (inactive); with NCI-H522 it was 2.25 µM (inactive); in the assay with OVCAR-8 it was 13 µM (inactive). Also, the GI50 with RPMI-8226 is 6.03 µM (inactive); with SK-MEL-28 it was 3.94 µM (inactive); with SK-MEL-5, 1.99 µM (inactive); with SNB-19 it was 5.93 µM (inactive); in the assay with SNB-75 it was 7.4 µM (inactive); with SR it was 9.68 µM (inactive). In addition, the figures for the GI50 with T47D and with UACC-257 were 15.3 µM (inactive) and 11 µM (inactive), respectively.

For the molecule `COC(=O)c1ccc(C)cc1C1CN=NC12Cc1c(C)cccc1C2=O` (stereo not given), the GI50 was 53.5 µM (inactive) in the assay with CCRF-CEM; 20.2 µM (inactive) with COLO 205; 55.7 µM (inactive) with DU-145; 25.6 µM (inactive) in the assay on HCT-116; 28.6 µM in the assay on HCT-15; 28.4 µM (inactive) in the assay on HL-60. For the same molecule, the GI50 is 46.1 µM (inactive) with IGROV-1; 41 µM (inactive) with MDA-MB-435; 41.7 µM (inactive) in the assay with MOLT-4; 47 µM (inactive) in the assay on NCI-H226; 24.2 µM (inactive) in the assay on NCI-H522; 60.1 µM (inactive) in the assay with OVCAR-8. In addition, the GI50 was 36.6 µM (inactive) with RPMI-8226; 80.4 µM (inactive) with SK-MEL-28; 30 µM (inactive) in the assay with SK-MEL-5; 73.1 µM (inactive) with SNB-19; 32 µM (inactive) in the assay with SNB-75; 33.3 µM (inactive) in the assay with SR. Moreover, the results for the GI50 with T47D and in the assay with UACC-257 were 23.7 µM (inactive) and 49.7 µM (inactive), respectively.
